We go through one compound from paper PMC9440176, “Novel benzylidene benzofuranone analogues as potential anticancer agents: design, synthesis and in vitro evaluation based on CDK2 inhibition assays” (3 Biotech, 2022).

For one assay, the system named is MCF-7. Description: MTT cytotoxicity assay on MCF-7. The assay is classed as cell-based. The following applies: 24 h, read-out: Inhibition of cell proliferation, IC50, MCF-7. As to the method: The monolayer cell culture was trypsinized and the cell count was adjusted to 5.0 × 10^5 cells/ml using respective media containing 10% FBS. To each well of the 96-well microtiter plate, 100 µL of the diluted cell suspension (50,000cells/well) was added. After 24 h, when a partial monolayer was formed, the supernatant was flicked off, the monolayer was then washed once again with the medium and 100 µL of different test concentrations of test drugs were added on to the partial monolayer in microtiter plates. The plates were then incubated at 37 °C for 24 h in 5% CO2 atmosphere. After incubation, the test solutions in the wells were discarded and 100 µL of MTT (5 mg/10 ml of MTT in PBS) was added to each well. The plates were then incubated for 4 h at 37 °C in 5% CO2 atmosphere. The supernatant was then removed and 100 µL of DMSO was added and the plates were gently shaken to solubilize the formed formazan. The absorbance was measured using a microtiter plate reader at a wavelength of 590 nm. The percentage growth inhibition was thus calculated using the following formula and the concentration of the test drug required to inhibit the cell growth by 50% (IC50) values is generated from the dose–response curves for each one of the cell lines (Meerloo et al. [2011]).
The test compounds were screened for their in vitro cytotoxicity by MTT assay against two cancer cell lines, namely MCF-7, HCT-116 and normal epithelial kidney cells (Vero). Doxorubicin was used as a reference standard.
On the technique in general: Tetrazolium dyes change colour on reduction, which living cells bring about.

In another assay the test system is HCT116 cells. Description: Comet assay (DNA damage). The assay is classed as cell-based, Human. The note with it: 24 h, HCT-116. As to the method: To assess the genotoxicity effect of newly synthesized aurones, comet assay was performed on HCT -116 cell lines.
The agarose-coated glass slides were prepared according to the standard procedure (Tice et al. [2000]).
Compound selected—NISOA4.
Cell line used were- HCT116 cells (Human colorectal cancer cell lines).
HCT -116 (1 × 10^6) cells were treated with two different concentrations, 12.5, 25 μM of NISOA4 for 24 h.
The cells were centrifuged at 2000 rpm at 4 °C for 5 min followed by washing with PBS. Further, it was air dried and pellet was dissolved once again in PBS.
After keeping slides at 4 °C for 2 h, slides were removed from the lysis buffer and were placed side by side on a horizontal gel box near one end, sliding them as close together as possible.
The slides were placed on ice for 10 min and submerged in lysis buffer (2.5% NaCl, 100 mM EDTA, 10 mM Tris, 10% DMSO and 1% Troton X-100) at pH 10 at 4 °C for more than 1 h.
In the next step, the buffer reservoir was filled with freshly made electrophoresis buffer (pH > 13) until the liquid level was enough to cover the slides. […]
Slides were stained with 80 µL 1× Ethidium Bromide and left aside for 10 min followed by washing with PBS to remove the excess of stain. The slides were then scored immediately after washing.
The visualization of DNA damage was observed based on EtBr-staining technique using a 40× objective on a fluorescent microscope. The assessment of both qualitative as well as quantitative extent of DNA damage in the cells were carried out by measuring the length of DNA migration and the percentage of the migrated DNA using ImageJ software with open comet plug-in. Generally, 50 to 100 randomly selected cells are analysed per sample. Finally, the total tail amount was calculated. The final results are assessed by using the following parameters: (i)amount of migration per cell (ii) the number of cells with increased migration (iii) the extent of migration among damaged cells and (iv) cell viability (Końca et al. [2003]).

A further assay deals with HCT 116 cell lines. Description: Cell cycle analysis (PI, FACS). The assay is classed as cell-based, Human. The following applies: 24 h. The procedure: The cell cycle analysis was followed where 1 × 10^6 cells were seeded and cultured for 24 h in a 6-well plate containing 2 ml of the media. Cells were then treated with desired concentrations of the given samples that were prepared in media and further incubated for another 24 h. Cells were then harvested and centrifuged at 2000 rpm for 5 min at room temperature and the supernatant was discarded carefully retaining the cell pellet. Cell pellet was then washed by resuspending in 2 ml of 1XPBS. The washing was repeated another time under the same conditions. Further, the supernatant was discarded retaining the pellet. Cells were then fixed by resuspending in 300 µL of Sheath fluid followed by the addition of 1 ml of chilled 70% ethanol drop by drop gently with continuous shaking and one more mL of the same at once. The cells were then stored at 4 °C overnight. Post fixing, the cells were centrifuged at 2000 rpm for 5 min washed twice with 2 ml of cold 1XPBS and suspended in 450 µL of sheath fluid containing 0.05 mg/ml PI (Propidium iodide), 0.05 mg/ml RNase A and incubated for 15 min in the dark (Kasibhatla et al. [2006]).The percentage of cells in various stages of cell cycle both in the treated as well as un-treated populations was determined using FACS Caliber (BD Biosciences, San Jose, CA).

The subject of the next assay is HCT-116 cells. Description: Apoptosis detection by propidium iodide / Annexin V-FITC. The assay is classed as cell-based, Human. Set-up: FACS analysis of apoptosis detection, Viable cells / FACS analysis of apoptosis detection, Early apoptotic / FACS analysis of apoptosis detection, Late apoptotic / FACS analysis of apoptosis detection, Necrotic: unit not given here. The procedure:
The day before induction of apoptosis, 1 × 10^6cells per well were plated on a 6-well plate using respective media with 10% FBS and 1% PenStrep, incubated overnight at 37 °C at 5% CO2.The media was replaced with test solutions of different concentrations in the media containing 10% FBS. The treated cells were incubated for 24 h at normal culture conditions. The cells were further harvested and the well contents were completely transferred into the sterile FACS tubes. The cell contents were centrifuged at 2000 rpm for 5 min and the supernatant was discarded. After centrifugation, the cells were washed twice with cold PBS and then resuspended in 1 ml of binding buffer at a concentration of 1× 10^6 cells/ml. […] of the cell suspension (5× 10^5 cells) were then transferred into a fresh FACS tube (Vermes et al. [1995]). Further, cells were gently mixed with […] of propidium iodide and […] of Annexin V before being incubated for 20 minutes at room temperature in the dark. The cells were immediately analyzed by flow cytometer within a duration of an hour.

Each structure is given as a SMILES string. pIC50: −log10 of the molar value.

`COc1ccc(/C=C2\Oc3c(c(OC)cc(OC)c3C3=CCN(C(C)C)CC3)C2=O)cc1OC` [NISOA4]: in the assay on MCF-7, the pIC50 is 4.45. Further, the “Olive moments (Mean ± SD)” value in the assay with HCT116 cells (12.5 µM) was 25.38. The “Olive moments (Mean ± SD)” value in the assay on HCT116 cells (12.5 µM, listed as NISOA04) amounted to 25.384 ± 24.333. For the same compound, the “Olive moments (Mean ± SD)” value in the assay on HCT116 cells (25 µM, listed as NISOA04) was found to be 73.582 ± 97.498. Further, the “percentage cell population GO/G1 phase” value with HCT 116 cell lines (high concentration (25)) amounted to 57.97%. In addition, in the assay with HCT 116 cell lines (low concentration (12.5)), the “percentage cell population G2/M phase” value was found to be 17.30%, the “percentage cell population GO/G1 phase” value is reported as 70.84% and the “percentage cell population S phase” value is given as 10.61%. In addition, in the assay with HCT-116 cells (12.5 µM), the “FACS analysis of apoptosis detection, Early apoptotic” value was 6.36; the “FACS analysis of apoptosis detection, Late apoptotic” value turned out to be 28.95; the “FACS analysis of apoptosis detection, Necrotic” value worked out at 9.61; the “FACS analysis of apoptosis detection, Viable cells” value worked out at 55.08. Moreover, in the assay on HCT-116 cells (25 µM), the “FACS analysis of apoptosis detection, Early apoptotic” value is on record as 0.17; the “FACS analysis of apoptosis detection, Late apoptotic” value was 52.11; the “FACS analysis of apoptosis detection, Necrotic” value is 24.06; the “FACS analysis of apoptosis detection, Viable cells” value worked out at 23.66.
